Laboratory results taken from patent US20230059136A1, “THE COMPOUNDS AND COMPOSITIONS FOR TREATING CONDITIONS ASSOCIATED WITH NLRP ACTIVITY” (Novartis AG, priority 2018, published 2023).

Tested on: IL-1β production in PMA-differentiated THP-1 cells
Experiment: IL-1β production in PMA-differentiated THP-1 cells stimulated with gramicidin (hTHP-1 assay containing 2% fetal bovine serum)
Type: cell-based, human
Conditions: Homo sapiens, THP-1, Table B1; 2% fetal bovine serum; cells printed as numeric bound; read-out: hTHP-1 IC50 (Average IC50 of compounds in hTHP-1 assay)
Outline: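 IL-1β release was read by HTRF on supernatants of 50,000 PMA-primed (20 ng/ml, 16-18 h) THP-1 cells/well in 2% FBS medium. Cells saw compound for 1 h (11-point titration from 100 μM, 0.37% DMSO) before a 2 h gramicidin (5 μM) challenge.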

Compound	IC50 [nM]
CC(C)c1cc2c(c(C(C)C)c1CC(=O)N=S(N)(=O)c1cnc(C(C)(O)CO)s1)COC2 (single isomer, unassigned) [Example 339, (R, S) or (S, S)-N-(amino(2-(1,2-dihydroxypropan-2-yl)thiazol-5-yl)(oxo)-λ^6-sulfaneylidene)-2-(4,6-diisopropyl-1,3-dihydroisobenzofuran-5-yl)acetamide]	> 30000
CC(C)c1cc(C(F)F)nc(C(C)C)c1CC(=O)N=S(N)(=O)c1ccc(CN(C)C)cc1 (single isomer, unassigned) [Example 332, (S) or (R)-N-(amino(4-((dimethylamino)methyl)phenyl)(oxo)-λ^6-sulfaneylidene)-2-(6-(difluoromethyl)-2,4-diisopropylpyridin-3-yl)acetamide]	> 30000

Same assay, conditions: Homo sapiens, THP-1, Table B1; 2% fetal bovine serum; class symbols; read-out: hTHP-1 IC50 (Average IC50 of compounds in hTHP-1 assay)

Compound	IC50 [nM]
CC(C)c1cc(F)cc(C(C)C)c1CC(=O)NS(=N)(=O)c1ncc(C(C)(C)O)s1 [Example 8, (S)- and (R)-2-(4-fluoro-2,6-diisopropylphenyl)-N-(5-(2-hydroxypropan-2-yl)thiazole-2-sulfonimidoyl)acetamide]	1000 to 5000
CC(C)c1cc(C(F)F)nc(C(C)C)c1CC(=O)N=S(N)(=O)c1sc(CN(C)C)cc1F (stereo not shown) [Example 248, N-(amino(5-((dimethylamino)methyl)-3-fluorothiophen-2-yl)(oxo)-λ^6-sulfaneylidene)-2-(6-(difluoromethyl)-2,4-diisopropylpyridin-3-yl)acetamide]	1000 to 5000
CCc1cc2c(c(C(C)C)c1CC(=O)N=S(N)(=O)c1cc(C(C)(C)O)cs1)COC2 (single isomer, unassigned) [Example 295, (R) or (S)-N-(amino(4-(2-hydroxypropan-2-yl)thiophen-2-yl)(oxo)-λ^6-sulfaneylidene)-2-(6-ethyl-4-isopropyl-1,3-dihydroisobenzofuran-5-yl)acetamide]	200 to 1000
CC(C)c1cc(F)cc(C(C)C)c1CC(=O)N=[S@@](=O)(NC#N)c1ncc(C(C)(C)O)s1 [Example 342, (R)-N-(cyanamido(5-(2-hydroxypropan-2-yl)thiazol-2-yl)(oxo)-λ^6-sulfaneylidene)-2-(4-fluoro-2,6-diisopropylphenyl)acetamide]	1000 to 5000
CC(C)c1cc2c(c(C(C)C)c1CC(=O)N=S(N)(=O)c1cnc(C(C)(O)CO)s1)COC2 (stereo not shown) [Example 252, N-(amino(2-(1,2-dihydroxypropan-2-yl)thiazol-5-yl) (oxo)-λ^6-sulfaneylidene)-2-(4,6-diisopropyl-1,3-dihydroisobenzofuran-5-yl)acetamide]	1000 to 5000
CC(C)c1cc(COC2CCCC2)cc(C(C)C)c1CC(=O)N=S(N)(=O)c1cnc(C(C)(O)CO)s1 (stereo not shown) [Example 251, N-(amino(2-(1,2-dihydroxypropan-2-yl)thiazol-5-yl)(oxo)-λ^6-sulfaneylidene)-2-(4-((cyclopentyloxy)methyl)-2,6-diisopropylphenyl)acetamide]	200 to 1000
CNCc1ccc(S(N)(=O)=NC(=O)Cc2c(C(C)C)cc(C(F)F)cc2C(C)C)cc1 (stereo not shown) [Example 255, N-(amino(4-((methylamino)methyl)phenyl)(oxo)-λ^6-sulfaneylidene)-2-(4-(difluoromethyl)-2,6-diisopropylphenyl)acetamide]	5000 to 30000
CC(C)c1cc2c(c(C(C)C)c1CC(=O)N=S(N)(=O)c1ccc(CN(C)C)cc1)COC2 (stereo not shown) [Example 134, N-(amino(4-((dimethylamino)methyl)phenyl)(oxo)-λ^6-sulfaneylidene)-2-(4,6-diisopropyl-1,3-dihydroisobenzofuran-5-yl) acetamide]	1000 to 5000
CCc1cc2c(c(C(C)C)c1CC(=O)N=S(N)(=O)c1sc(C(C)(C)O)cc1F)COC2 (stereo not shown) [Example 263, N-(amino(3-fluoro-5-(2-hydroxypropan-2-yl)thiophen-2-yl)(oxo)-λ^6-sulfaneylidene)-2-(6-ethyl-4-isopropyl-1,3-dihydroisobenzofuran-5-yl)acetamide]	1000 to 5000

Same assay, conditions: Homo sapiens, THP-1, Table B2; 2% fetal bovine serum; class symbols; read-out: hTHP-1 IC50 (Average IC50 of compounds in hTHP-1 assay)

Compound	IC50 [nM]
COc1ccc(C(C)(C)O)cc1S(N)(=O)=NC(=O)Cc1c(C(C)C)cc(C#N)cc1C(C)C (racemic) [Example 387, (R) and (S)—N-(amino(5-(2-hydroxypropan-2-yl)-2-methoxyphenyl)(oxo)-λ^6-sulfaneylidene)-2-(4-cyano-2,6-diisopropylphenyl)acetamide]	5000 to 30000
CC(C)c1cc(F)cc(C(C)C)c1CC(=O)N=[S@@](=O)(NC#N)c1sc(C(C)(C)O)nc1CO [Example 368, (R)-N-(cyanamido(4-(hydroxymethyl)-2-(2-hydroxypropan-2-yl)thiazol-5-yl)(oxo)-λ^6-sulfaneylidene)-2-(4-fluoro-2,6-diisopropylphenyl)acetamide]	40 to 200
COc1ccc(C(C)(C)O)cc1[S@@](=O)(=NC(=O)Cc1c(C(C)C)cc(C#N)cc1C(C)C)NC#N [Example 378, (R)-N-(cyanamido(5-(2-hydroxypropan-2-yl)-2-methoxyphenyl)(oxo)-λ^6-sylfaneylidene)-2-(4-cyano-2,6-diisopropylphenyl)acetamide]	5000 to 30000
CC(C)c1cc(C#N)c(F)c(C(C)C)c1CC(=O)N=S(N)(=O)c1cnc(C(O)(CO)CO)s1 (stereo not shown) [Example 350, N-(amino(oxo)(2-(1,2,3-trihydroxypropan-2-yl)thiazol-5-yl)-λ^6-sulfaneylidene)-2-(4-cyano-3-fluoro-2,6-diisopropylphenyl)acetamide]	200 to 1000
CNCc1ccc(S(N)(=O)=NC(=O)Cc2c(-c3ccccc3)ccc3c2CCC3)cc1 (stereo not shown) [Example 379, N-(amino(4-((methylamino)methyl)phenyl)(oxo)-λ^6-sulfaneylidene)-2-(5-phenyl-2,3-dihydro-1H-inden-4-yl)acetamide]	5000 to 30000

Same assay, conditions: Table B1; 2% fetal bovine serum; class symbols; read-out: hTHP-1 IC50 (Average IC50 of compounds in hTHP-1 assay)

Compound	IC50 [nM]
CC(C)c1cc(C(F)F)cc(C(C)C)c1CC(=O)N=S(N)(=O)c1ccc(CN(C)C)cc1 (single isomer, unassigned) [Example 325, (R) or (S)-N-(amino (4-((dimethylamino)methyl)phenyl)(oxo)-λ6-sulfaneylidene)-2-(4-(difluoromethyl)-2,6-diisopropylphenyl) acetamide]	200 to 1000
CC(C)c1cc(C#N)c(F)c(C(C)C)c1CC(=O)N=S(N)(=O)c1cnc(C(C)(O)CO)s1 (single isomer, unassigned) [Example 333]	40 to 200
Cc1sc(S(N)(=O)=NC(=O)Cc2c(C(C)C)ccc(F)c2C(C)C)cc1C(C)(C)O (single isomer, unassigned) [Example 173, (R) or (S)-N-(amino(4-(2-hydroxypropan-2-yl)-5-methylthiophen-2-yl)(oxo)-λ^6-sulfaneylidene)-2-(3-fluoro-2,6-diisopropylphenyl) acetamide]	200 to 1000
2-(4-Fluoro-2,6-diisopropylphenyl)-N-(4-(2-hydroxypropan-2-yl)phenylsulfonimidoyl)acetamide [Example 1]	5000 to 30000
CC(C)c1nc(-c2cccc(C(F)(F)F)c2)c(F)c(C(C)C)c1CC(=O)N=S(N)(=O)c1cnc(C(C)(C)O)s1 (single isomer, unassigned) [Example 202, N-(amino(2-(2-hydroxypropan-2-yl)thiazol-5-yl)(oxo)-λ^6-sulfaneylidene)-2-(5-fluoro-2,4-diisopropyl-6-(3-(trifluoromethyl)phenyl)pyridin-3-yl) acetamide]	200 to 1000
CC(C)c1ccc(F)c(C(C)C)c1CC(=O)N=S(N)(=O)c1ncc(C(C)(C)O)s1 (single isomer, unassigned) [Example 187, (S) or (R)-N-(amino(5-(2-hydroxypropan-2-yl)thiazol-2-yl)(oxo)-λ^6-sulfaneylidene)-2-(3-fluoro-2,6-diisopropylphenyl) acetamide]	5000 to 30000
CC(C)c1ccc(F)c(C(C)C)c1CC(=O)N=S(N)(=O)c1ncc(C(C)(C)O)s1 (single isomer, unassigned) [Example 188, (R) or (S)-N-(amino(5-(2-hydroxypropan-2-yl)thiazol-2-yl)(oxo)-λ^6-sulfaneylidene)-2-(3-fluoro-2,6-diisopropylphenyl) acetamide]	200 to 1000
CC(C)c1cc(F)cc(C(C)C)c1CC(=O)N=S(N)(=O)c1sc(C(C)(C)O)cc1F (single isomer, unassigned) [Example 51, (R)- or (S)-2-(4-fluoro-2,6-diisopropylphenyl)-N-(3-fluoro-5-(2-hydroxypropan-2-yl)thiophen-2-ylsulfonimidoyl)acetamide]	200 to 1000
CC(C)c1ccc(F)c(C(C)C)c1CC(=O)N=S(N)(=O)c1cc(C(C)(C)O)cs1 (single isomer, unassigned) [Example 160, (S) or (R)-N-(amino(4-(2-hydroxypropan-2-yl)thiophen-2-yl)(oxo)-λ^6-sulfaneylidene)-2-(3-fluoro-2,6-diisopropylphenyl) acetamide]	200 to 1000
CC(C)c1cc(C#N)cc(C(C)C)c1CC(=O)N=S(N)(=O)c1sc(C(C)(C)O)nc1CO (single isomer, unassigned) [Example 65]	5000 to 30000
CC(C)c1ccc(C#N)c(C(C)C)c1CC(=O)N=S(N)(=O)c1nc(C(C)(C)O)cs1 (single isomer, unassigned) [Example 180, (S) or (R)-N-(amino(4-(2-hydroxypropan-2-yl)thiazol-2-yl)(oxo)-λ^6-sulfaneylidene)-2-(3-cyano-2,6-diisopropylphenyl) acetamide]	5000 to 30000

Same assay, conditions: Table B2; 2% fetal bovine serum; class symbols; read-out: hTHP-1 IC50 (Average IC50 of compounds in hTHP-1 assay)

Compound	IC50 [nM]
CC(C)c1cc(F)cc(C(C)C)c1CC(=O)N=S(N)(=O)c1sc(C(C)(C)O)nc1CO (racemic) [Example 357, (R) and (S)—N-(amino(4-(hydroxymethyl)-2-(2-hydroxypropan-2-yl)thiazol-5-yl)(oxo)-λ^6-sulfaneylidene)-2-(4-fluoro-2,6-diisopropylphenyl)acetamide]	5000 to 30000
